Measured values: patent publication US7838271B2, “Microbiological method for producing amides” (priority 2001, dated 2010)
Where two headings read alike, the source gives them in different places.

What was measured:
[1] = system: Rhodococcus sp. FZ4 nitrile hydratase; assay type: cell-based
Procedure: (§1) Nitrile hydratase activity was determined by incubating a reaction mixture comprising 3-cyanopyridine (1.0 M; 1.0 ml), potassium phosphate buffer (0.1 M, pH 7.0; 0.5 ml) and cell suspension (0.5 ml) with stirring at 20° C. for 5 min. The reaction was stopped by adding HCI (5 M; 0.1 ml). After filtration (0.2 μm filter) of the reaction mixture, the amount of nicotinamide produced was determined by means of HPLC (Waters Spherisorb 5 μ ODS2 (4.6×150 mm); KH2P04/H3P04 (10 mM; pH 2.8)/acetonitrile=9:1 (v/v); 1 ml/min; 230 nm). The total activity is expressed as μmol of nicotinamide produced/ (min×ml) and the specific activity is expressed as μmol of nicotinamide produced/(min×ml×OD610 nm).
(§2) The preculture medium of Table 2 was inoculated with strain Rhodococcus sp. FZ4 (DSM 13597), followed by incubation with shaking at 28° C. for 1 to 2 days. The preculture was transferred into the culture medium of Table 5, which contained different inducers, and cultured with shaking at 28° C. for 3 days. Nitrile hydratase activity was determined according to Example 1. Rhodococcus sp.

Rhodococcus sp. FZ4 = assay type: cell-based
Procedure: as §2

[2] = system: Rhodococcus rhodochrous J1 nitrile hydratase; experiment: Substrate specificity of nitrile hydratase activity (comparison strain); assay type: cell-based
[3] = system: Rhodococcus sp. FZ4 nitrile hydratase; experiment: Substrate specificity of nitrile hydratase activity, resting cells; assay type: cell-based
Procedure: as §1
Rhodococcus sp. FZ4 nitrile hydratase activity with respect to different substrates was determined according to Example 1, except that the appropriate substrate was used instead of 3-cyanopyridine and that the HPLC conditions were modified according to the substrate used.

[4] = system: purified Rhodococcus sp. FZ4 nitrile hydratase; experiment: Substrate specificity of purified nitrile hydratase; assay type: biochemical
Procedure: A reaction mixture comprising nitrile hydratase solution (0.695 μmol/min; 0.025 ml), different substrates (0.500 ml) and potassium phosphate buffer (0.1 M; pH 7.0; 0.475 ml) was incubated at 20° C. for 5 to 10 min. The concentrations of the substrates used were in the range from 0.015 to 0.250 M. The reaction was stopped by adding MeOH. The amount of amide produced was determined by means of HPLC.

[5] = system: purified Rhodococcus sp. FZ4 nitrile hydratase; assay type: biochemical
Procedure: (§3) A solution comprising nitrile hydratase solution (0.695 μmol/min; 0.025 ml), potassium phosphate buffer (0.1 M; pH 7.0; 0.475 ml), distilled water (0.150 ml) and different potential inhibitors (0.100 ml) was incubated at 20° C. for 5 min. This was followed by the addition of 3-cyanopyridine (1.0 M; 0.250 ml). The concentration of the inhibitors in the reaction mixture was 1.0 mM. The reaction mixture was incubated at 20° C. for 10 min. The reaction was stopped by adding MeOH. The amount of nicotinamide produced was determined by means of HPLC according to Example 1.

[6] = system: purified Rhodococcus sp. FZ4 nitrile hydratase; experiment: Influence of metal ions on the activity of purified nitrile hydratase; assay type: biochemical; conditions: no addition = 100
Procedure: as §3
The influence of metal ions on the activity of purified nitrile hydratase was carried out according to Example 24, but with the addition of metal ions instead of potential inhibitors. […]

[7] = culture medium with inducer 0.2% (w/v), 28° C., 3 days, substrate 3-cyanopyridine
[8] = culture medium with inducer 0.2% (w/v), 28° C., 3 days

SMILES | Specific activity [1, 7] | Total activity [1, 7] [µmol/min/mL] | Growth (Rhodococcus sp. FZ4; [8]) [OD610 nm] | Relative activity [5] [%] | also measured
CC=CCC#N [3-Pentenenitrile] | 13.4 μmol/(min × ml × OD610 nm) | 62 | 4.62 | – | –
CC(C)C#N [Isobutyronitrile] | 52.1 μmol/(min × ml × OD610 nm) | 273 | 5.24 | – | –
CCC#N [Propionitrile] | 20.3 μmol/(min × ml × OD610 nm) | 95.8 | 4.72 | – | Relative activity [2]: 435%; Relative activity [3]: 412%; Relative activity [4]: 693%
O=C(O)CN(CCN(CC(=O)O)CC(=O)O)CC(=O)O [EDTA, Ethylenediaminetetraacetic acid] | – | – | – | 100 | –
[Cl][Mn][Cl] [MnCl2] | – | – | – | – | Relative activity ([6]; metal ions 1.0 mM): 123%
O=C(O)c1cc(SSc2ccc([N+](=O)[O-])c(C(=O)O)c2)ccc1[N+](=O)[O-] [5,5′-Dithiobis(2-nitrobenzoic acid)] | – | – | – | 93.4 | –
CC=CC#N [Crotononitrile] | 49.4 μmol/(min × ml × OD610 nm) | 407 | 8.24 | – | Relative activity [2]: 78%; Relative activity [3]: 92.1%; Relative activity [4]: 114%
NC(=O)c1ccncc1 [Isonicotinamide] | 2.17 μmol/(min × ml × OD610 nm) | 10.9 | 5.03 | – | –
NO [Hydroxylamine] | – | – | – | 1.34 | –
O=S(=O)(F)Cc1ccccc1 [Phenylmethanesulfonyl fluoride] | – | – | – | 110 | –
O=[N+]([O-])[O-].[Ag+] [AgNO3] | – | – | – | – | Relative activity ([6]; metal ions 1.0 mM): 0%
[Cl][Ni][Cl] [NiCl2] | – | – | – | – | Relative activity ([6]; metal ions 1.0 mM): 123%
N#Cc1ccncc1 [4-Cyanopyridine] | – | – | – | – | Relative activity [2]: 70%; Relative activity [3]: 98.4%; Relative activity [4]: 92.8%
N#CCC(N)=O [Cyanoacetamide] | 6.50 μmol/(min × ml × OD610 nm) | 30.9 | 4.75 | – | –
O=S(=O)(O)c1cc(O)c(O)c(S(=O)(=O)O)c1 [Tiron] | – | – | – | 114 | –
CCCC(N)=O [Butyramide] | 73.2 μmol/(min × ml × OD610 nm) | 344 | 4.7 | – | –
O=C1CCCCCN1 [ε-Caprolactam] | 9.08 μmol/(min × ml × OD610 nm) | 40.3 | 4.44 | – | –
CC(C)CCC#N [Isocaprononitrile] | 28.5 μmol/(min × ml × OD610 nm) | 134 | 4.72 | – | –
N#Cc1ccccn1 [2-Cyanopyridine] | – | – | – | – | Relative activity [2]: 45%; Relative activity [3]: 39.3%; Relative activity [4]: 36.7%
CCN1C(=O)C=CC1=O [N-Ethylmaleinimide] | – | – | – | 95.3 | –
CCCCC#N [Valeronitrile] | 32.4 μmol/(min × ml × OD610 nm) | 120 | 3.70 | – | –
c1cnc2c(c1)ccc1cccnc12 [1,10-Phenanthroline] | – | – | – | 106 | –
N#Cc1cccc(Cl)c1 [m-Chlorobenzonitrile] | – | – | – | – | Relative activity [2]: 43%; Relative activity [3]: 39.3%; Relative activity [4]: 66.5%
Oc1cccc2cccnc12 [8-Hydroxyquinoline] | – | – | – | 97.8 | –
NCCS [Cysteamine] | – | – | – | 99.1 | –
NC(=O)c1ccccc1 [Benzamide] | 2.12 μmol/(min × ml × OD610 nm) | 8.24 | 3.88 | – | –
OCCS [2-Mercaptoethanol] | – | – | – | 76.3 | –

SMILES | Specific activity [1, 7] | Total activity [1, 7] [µmol/min/mL] | Growth (Rhodococcus sp. FZ4; [8]) [OD610 nm] | Relative activity [5] [%] | also measured
C=C(C)C#N [Methacrylonitrile] | 71.5 μmol/(min × ml × OD610 nm) | 330 | 4.61 | – | Relative activity [2]: 87%; Relative activity [3]: 3.64%
[Cl][Fe]([Cl])[Cl] [FeCl3] | – | – | – | – | Relative activity ([6]; metal ions 1.0 mM): 105%
c1ccc(-c2ccccn2)nc1 [2,2′-Bipyridyl] | – | – | – | 97.8 | –
CC(C)C(N)=O [Isobutyramide] | 109 μmol/(min × ml × OD610 nm) | 387 | 3.55 | – | –
CCC(N)=O [Propionamide] | 28.7 μmol/(min × ml × OD610 nm) | 149 | 5.17 | – | –
N[C@@H]1CONC1=O [D-Cycloserine] | – | – | – | 86.3 | –
CCCCCC#N [Caprononitrile] | 23.0 μmol/(min × ml × OD610 nm) | 104 | 4.54 | – | –
[Ca+2].[Cl-].[Cl-] [CaCl2] | – | – | – | – | Relative activity ([6]; metal ions 1.0 mM): 113%
O=C(O)CI [Iodoacetate] | – | – | – | 96.7 | –
CCCC#N [Butyronitrile] | 58.4 μmol/(min × ml × OD610 nm) | 307 | 5.26 | – | Relative activity [2]: 26%; Relative activity [3]: 466%; Relative activity [4]: 578%
CC(C)CC#N [Isovaleronitrile] | 23.2 μmol/(min × ml × OD610 nm) | 74.7 | 3.22 | – | –
[Cl][Hg][Cl] [HgCl2] | – | – | – | – | Relative activity ([6]; metal ions 0.1 mM (footnote b)): 0%
O[C@H](CS)[C@H](O)CS (racemic) [Dithiothreitol] | – | – | – | 103 | –
N#Cc1ccccc1 [Benzonitrile] | – | – | – | – | Relative activity [2]: 27%; Specific activity [1]: 7.17 μmol/(min × ml × OD610 nm); Total activity [1]: 40.3 µmol/min/mL; Growth (Rhodococcus sp. FZ4): 5.62 OD610 nm; Relative activity [3]: 41.7%; Relative activity [4]: 75.6%
N#Cc1ccc(Cl)cc1 [p-Chlorobenzonitrile] | – | – | – | – | Relative activity [2]: 13%; Relative activity [3]: 8.25%; Relative activity [4]: 8.31%
N#Cc1ccccc1Cl [o-Chlorobenzonitrile] | – | – | – | – | Relative activity [2]: 2.8%; Relative activity [3]: 0%; Relative activity [4]: 0%
C/C=C/C(N)=O [Crotonamide] | 59.9 μmol/(min × ml × OD610 nm) | 558 | 9.32 | – | –
CCCCC(N)=O [Valeramide] | 57.5 μmol/(min × ml × OD610 nm) | 322 | 5.61 | – | –
C=CC#N [Acrylonitrile] | 1.81 μmol/(min × ml × OD610 nm) | – | 3.27 | – | Relative activity [2]: 478%; Relative activity [3]: 498%; Relative activity [4]: 774%
NNc1ccccc1 [Phenylhydrazine] | – | – | – | 84.6 | –
C=C(C)C(N)=O [Methacrylamide] | 125 μmol/(min × ml × OD610 nm) | 569 | 4.55 | – | Relative activity [4]: 1.39%
C=CC(N)=O [Acrylamide] | – | – | – | – | Specific activity [1]: 11.7 μmol/(min × ml × OD610 nm); Total activity [1]: 60.5 µmol/min/mL; Growth (Rhodococcus sp. FZ4): 5.17 OD610 nm
O=S(=O)([O-])[O-].[Zn+2] [ZnSO4] | – | – | – | – | Relative activity ([6]; metal ions 1.0 mM): 121%
O=C(O)c1cc[c]([Hg][Cl])cc1 [p-Chloromercuribenzoic acid] | – | – | – | 187 | –
NC(N)=O [Urea] | 0.918 μmol/(min × ml × OD610 nm) | 5.66 | 6.16 | 106 | –
O=S(=O)([O-])[O-].[Cu+2] [CuS04] | – | – | – | – | Relative activity ([6]; metal ions 1.0 mM): 177%
